Test results from ChEMBL document CHEMBL5052850, “Compounds and methods targeting qsox1” (2021).
Calls of active or inactive are those of the source. The calls are words filed in the database; no cut-off is given here.

Tests used:
786-0 [1] = assay: Antiinvasive activity against human 786-0 cells measured spheroid invasion assay; type: functional, cell-based
MIA PaCa-2 = assay: Antiinvasive activity against human MIA PaCa-2 cells measured spheroid invasion assay; type: functional, cell-based
[2] = target: T1, Sulfhydryl oxidase 1 (Homo sapiens) (UniProt O00391); assay: Inhibition of QSOX1 (unknown origin) at 6.25 to 50 uM relative to control; conditions: dose 6.25-50 µM
T1 sequence (whole entry): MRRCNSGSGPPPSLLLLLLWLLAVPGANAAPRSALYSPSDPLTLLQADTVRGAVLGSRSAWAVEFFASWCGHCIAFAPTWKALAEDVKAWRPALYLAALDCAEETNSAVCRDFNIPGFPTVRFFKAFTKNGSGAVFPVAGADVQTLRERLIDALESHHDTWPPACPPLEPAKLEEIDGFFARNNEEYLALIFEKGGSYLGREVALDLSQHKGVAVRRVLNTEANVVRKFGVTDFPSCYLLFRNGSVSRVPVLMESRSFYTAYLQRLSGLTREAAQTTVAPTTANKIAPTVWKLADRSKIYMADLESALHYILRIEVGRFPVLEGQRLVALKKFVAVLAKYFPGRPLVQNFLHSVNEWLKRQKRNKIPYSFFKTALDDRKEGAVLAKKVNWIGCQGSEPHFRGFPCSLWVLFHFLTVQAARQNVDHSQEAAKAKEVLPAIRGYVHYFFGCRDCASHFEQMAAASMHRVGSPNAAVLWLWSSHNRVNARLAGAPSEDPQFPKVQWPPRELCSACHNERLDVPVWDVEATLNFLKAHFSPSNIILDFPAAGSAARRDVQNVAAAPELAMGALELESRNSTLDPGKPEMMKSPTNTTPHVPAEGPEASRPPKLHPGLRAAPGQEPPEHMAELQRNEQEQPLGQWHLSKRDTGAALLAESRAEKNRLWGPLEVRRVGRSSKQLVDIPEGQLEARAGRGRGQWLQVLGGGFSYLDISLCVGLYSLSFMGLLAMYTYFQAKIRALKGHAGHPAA

786-0 [3] = assay: Antitumor activity in human 786-0 cells xenografted immunodeficient mouse assessed as reduction in tumor growth at 14 mg/kg/day, po; type: functional; conditions: 786-0, po, read-out: TGI
MCF-10A = assay: Antiinvasive activity against human MCF-10A cells measured spheroid invasion assay; type: functional, cell-based
RCJ-41T2 = assay: Antiinvasive activity against human RCJ-41T2 cells at 156.25 to 1250 uM measured spheroid invasion assay; type: functional, cell-based; conditions: dose 156.25-1250 µM
UOK117 = assay: Antitumor activity in human UOK117 cells xenografted nude mouse assessed as suppression of tumor growth; type: functional, cell-based
Sulfhydryl oxidase 1 = target: T2, Sulfhydryl oxidase 1 (Homo sapiens, UniProt O00391); assay: Binding affinity towards QSOX1 (unknown origin) measured by microscale thermophoresis assay
T2 sequence (O00391 whole entry): T1 sequence (whole entry)

MDA-MB-231 [4] = assay: Antitumor activity in human MDA-MB-231-Luc cells xenografted immunodeficient mouse assessed as reduction in lung metastasis at 100 mg/kg, po administered for 28 days; type: functional; parameters: scale not given: the % may be the effect or the level left; conditions: time 28 day
MDA-MB-231 [5] = assay: Anticancer activity against human MDA-MB-231 cells at 156.25 to 1250 uM assessed as suppression of tumor cell tendrils spreading formation measured by 3D tumor cell spheroid assay; type: functional, cell-based; conditions: dose 156.25-1250 µM

## COc1cccc(C(=O)Nc2ccc(N3CCCC3)cc2)c1
786-0 [1]
  Activity: Active
MIA PaCa-2
  Activity: Active
[2]
  inhibition: Active
786-0 [3]
  inhibition in vivo at 14 mg/kg/day: 51%
MCF-10A
  Activity: Active
RCJ-41T2
  Activity: Active
UOK117
  Activity: Active
Sulfhydryl oxidase 1
  Kd: 20 µM
MDA-MB-231 [4]
  Activity: 76%
MDA-MB-231 [5]
  Activity: Active
